Our source for the IC50 values is PubChem BioAssay AID602211 (Sanford-Burnham Center for Chemical Genomics, 2012).

Structures are written as SMILES. Calls of active or inactive are those of the source.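 Rule for the calls: active = mean IC50 at or below 10 µM; inactive = the rest.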

The subject of this test is H9c2 cardiomyocytes, H2O2 protection, ATPLite viability, 2 h. The test can be described thus: H2O2-induced H9c2 cell death suppression – ATPLite luminescence, set 2, dose response (AID 602211).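 Note: potency is for protection so actives keep ATP signal up against peroxide killing.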
With `COc1cc2nc(Nc3ccc(F)cc3)nc(N)c2cc1OC`, the IC50 was 4.24 µM.
Under `COc1cc(/C=C(\C#N)C(=O)Nc2ccccc2)ccc1OCCN1CCOCC1` stands 11.7 µM (inactive).
Under `CCOC(=O)c1nn(-c2cccc(OC)c2)c2nc(Nc3ccccc3)cc(=O)n12` stands > 79 µM (inactive); under `O=C1c2ccccc2C(=O)N1CCCCSc1nc2ccccc2c(=O)n1CCCN1CCOCC1`, 8.49 µM; under `CC/C(C)=N\N=C\c1c(O)n(CC)c2cc(C3=NNC(=O)CC3)ccc12`, 16.6 µM (inactive).
Then `COc1cccc(Nc2nc3ccccc3n3nnnc23)c1`, with > 79 µM (inactive); and `O=C(NCCc1ccccc1Cl)c1ccc2nc3ccccc3c(=O)n2c1`, with 7.16 µM; and `N#C/C(=C\Nc1ccc2c(c1)OCCO2)c1nc2ccccc2[nH]1`, with 9.06 µM.
Regarding `COc1ccc(-c2nn(-c3ccccc3)cc2C(=O)Nc2nccs2)cc1`, the IC50 was 8.75 µM.
Then `Cc1c(C(=O)NCC2COc3ccccc3O2)oc2ccc(S(=O)(=O)N3CCOCC3)cc12` (stereo not given), with > 79 µM (inactive); and `COc1cc(-c2cc(NC=O)c3ncc(-c4ccc(C(C)=O)cc4)n3c2)cc(OC)c1OC`, with 3.51 µM; and `COc1cc(/C=C(\C#N)c2nc3ccc(C)cc3[nH]2)c([N+](=O)[O-])cc1OC`, with 9.31 µM.
Then `COc1ccc(CC(=O)N(Cc2ccccc2)c2ccccc2)cc1S(=O)(=O)N1CCOCC1`, with 2.24 µM; and `COc1ccc2[nH]c(=O)c(CN(CC3CCCO3)S(=O)(=O)c3ccccc3F)cc2c1` (stereo not given), with 4.52 µM; and `Cn1c(=O)[nH]c(=O)c2c1nc(N(CCO)Cc1ccccc1)n2CCCc1ccccc1`, with 11.3 µM (inactive).
In the case of `CC(=O)Nc1cccc(-c2cc(NC=O)c3ncc(-c4ccc(C(C)=O)cc4)n3c2)c1`, the IC50 is 6.5 µM.
Then `O=C(Nc1cccc(NC(=O)c2ccc([N+](=O)[O-])o2)c1)c1ccco1`, with 1.58 µM; and `O=C(CN1CCN(Cc2ccccc2)CC1)Nc1ccc([N+](=O)[O-])cc1C(=O)Nc1ccccc1F`, with 4.75 µM; and `COc1cccc(/C=N/NC(=O)c2nc(-c3ccccc3)cc(-c3ccccc3)n2)c1`, with 1.61 µM.
Then `CN1CCc2nc3ccccc3c(C(=O)OCC(=O)N(CCC#N)c3ccccc3)c2C1`, with 22.7 µM (inactive); and `Cc1ccc(NC(=O)c2cc(-c3cccs3)nc3ccccc23)nc1`, with 8.28 µM; and `CC12C=CC(=O)CC1CCC1C2CCC2(C)C(O)C(O)CC12` (stereo not given), with 2.62 µM.
Then `CCOC(=O)N1CCc2c(sc(NC(=O)CN3CCOCC3)c2C(=O)Nc2ccccc2)C1`, with 39.9 µM (inactive).
As for `CC(=O)Nc1ccc(S(=O)(=O)N(Cc2ccco2)Cc2cc3ccccc3[nH]c2=O)cc1`, the IC50 is > 79 µM (inactive).
Then `CC(=O)c1cccc(-c2cnc3c(NC=O)cc(-c4ccc(F)cc4)cn23)c1`, with 7.76 µM; and `CCOC(=O)c1cnc(Nc2nc3ccccc3o2)nc1CSc1nnc(C)s1`, with 12.8 µM (inactive).
Under `Cn1c(C(=O)NCCc2ccsc2)cc2c(=O)n(C)c3ccccc3c21` stands 4.74 µM; under `CCn1cc(C(=O)Nc2cccc(NC(C)=O)c2)c2cc(OC)c(OC)cc2c1=O`, 16.1 µM (inactive); under `CC(C)=NNc1cnnc2ccc([N+](=O)[O-])cc12`, 4.85 µM.
Under `CCOC(=O)C1CCN(c2cc3c(cc2NC(=O)c2ccc(OC)c(OC)c2)n(C)c(=O)n3C)CC1` stands 1.22 µM; under `O=C(Nc1cccc(/C=C/c2ccccn2)c1)c1ccc(-n2cncn2)cc1`, 3.13 µM; under `CCOC(=O)c1cc2c(=O)n3cccc(C)c3nc2n(CCCOC)c1=NC(=O)c1cccnc1`, 2.87 µM.
Turning to `COc1ccc(C(C(=O)NCc2ccccc2)N(Cc2cccs2)C(=O)c2cnccn2)cc1` (stereo not given), the IC50 is 25 µM (inactive).
Then `Cn1nc(C(=O)Nc2nc(-c3ccccn3)cs2)c2ccccc2c1=O`, with 6.13 µM.
Then `CC(C)CCN(C(=O)CNC(=O)c1ccco1)C(C(=O)NC1CCCCC1)c1ccco1` (stereo not given), with 13.4 µM (inactive).
Under `CNC(=O)c1cccc(NC(=O)c2cc(-c3ccccc3)nc3c2cnn3C(C)C)c1` stands > 79 µM (inactive); under `COc1ccc(N(CC(=O)Nc2cccc(C(C)=O)c2)S(=O)(=O)c2ccc(NC(C)=O)cc2)cc1`, 3.03 µM; under `CCOC(=O)C1=C(C)NC(C)=C(C(=O)OCC)C1C(=O)OCC(=O)NC(C)C`, 12.9 µM (inactive).
In the case of `Cc1ccc(C)c(NC(=O)C(Sc2nc3ccccc3c(=O)n2CC(C)C)c2ccccc2)c1` (stereo not given), the IC50 is 0.35 µM.
Then `CC(=O)Nc1cccc(-c2cc(NC=O)c3ncc(-c4cccc(C(C)=O)c4)n3c2)c1`, with 22.1 µM (inactive); and `COc1cccc(C(=O)Nc2cc(C)c3c(=O)oc4ccccc4c3n2)c1`, with 7.02 µM.
As for `CN(CC1COc2ccccc2O1)c1nc(-c2cccnc2)nc2ccccc12` (stereo not given), the IC50 was 25.9 µM (inactive).
Under `CC(=O)Nc1ccc(-c2csc(NC(=O)Nc3ccccc3)n2)cc1` stands 40.6 µM (inactive); under `CNC(=O)c1ccc(-c2sc3nc(N4CCOCC4)c4c(c3c2N)CC(C)(C)OC4)o1`, 6.13 µM.
Then `O=C(CN1CCCCC1)Nc1nc(-c2ccc(F)c(F)c2)cs1`, with > 79 µM (inactive); and `COc1cccc(NC(=O)c2oc3ccc(S(=O)(=O)N4CCOCC4)cc3c2C)c1`, with 1.98 µM.
Under `CC(C)C(=O)N1CCN(c2ccc(NC(=O)COc3ccccc3[N+](=O)[O-])cc2)CC1` stands 1.07 µM; under `COC(=O)c1ccc2c(=O)[nH]c(COC(=O)c3[nH]c(C)c(C(C)=O)c3C)nc2c1`, 5.29 µM.
Regarding `CN(C(=O)c1sc2nc(N3CCOCC3)c3c(c2c1N)CCCC3)c1ccccc1`, the IC50 was 2.64 µM.
Then `CCN(C[C@H]1N[C@@](CC)(C(=O)OC)[C@H]2C(=O)N(Cc3ccccc3)C(=O)[C@@H]12)C(=O)c1ccc(C(C)(C)C)cc1`, with > 79 µM (inactive); and `COc1cc2[nH]c(=O)n3nc(-c4ccccc4)nc3c2cc1OC`, with 11 µM (inactive).
Then `O=C(CCCN1C(=O)c2cccc3cccc(c23)C1=O)N1CCN(c2ccccc2O)CC1`, with 4.54 µM.
Then `Cc1cccc(NC(=O)c2nc[nH]c2C(=O)NCCCNC(=O)c2[nH]cnc2C(=O)Nc2cccc(C)c2)c1`, with 0.729 µM; and `COc1ccc(OC)c(/C=N/Nc2nncn2/N=C/c2cc(OC)ccc2OC)c1`, with 6.17 µM.
`COc1cc2c(C#CCCO)c(-c3ccsc3)oc(=O)c2cc1OC`: the IC50 was 2.04 µM.
Then `CCCN1C(=O)c2cc(C(=O)Nc3cccc(C(C)=O)c3)ccc2C1Nc1cccc(C(C)=O)c1` (stereo not given), with > 79 µM (inactive).
Under `COc1cc(NC(=O)c2cc3nc(-c4ccccc4)cc(-c4ccccc4)n3n2)cc(OC)c1OC` stands 3.87 µM.
Then `CC(=O)c1ccc(N2CCN(C(=O)C3CCCN(c4ncnc5c4nc4n5CCCCC4)C3)CC2)cc1` (stereo not given), with 2.68 µM; and `C[C@@H]1CN([C@H](C)CO)S(=O)(=O)c2ccc(C#Cc3ccccc3F)cc2O[C@H]1CN(C)C(=O)c1ccc2c(c1)OCO2`, with > 79 µM (inactive).
Take `CCCOc1ccc2[nH]c(C(=O)N/N=C/c3cc(OC)c(OC)c(OC)c3)cc2c1`: the IC50 was 4.04 µM.
Under `COc1cccc(-c2cnc3c(NC(C)=O)cc(-c4cccc(NS(C)(=O)=O)c4)cn23)c1` stands 7.84 µM.
Under `COC(=O)/C(=C(O)\C=C\c1ccccc1[N+](=O)[O-])c1nc2ccccc2[nH]1` stands 7.96 µM; under `COc1ccc(-c2cc3nc(-c4ccccc4)cc(N4CCN(C(C)=O)CC4)n3n2)cc1`, 8.73 µM.
Under `Cc1[nH]c2ccccc2c1/C=N/NC(=O)c1cc(-c2cccs2)[nH]n1` stands 3.62 µM; under `C[C@H](CO)N1C[C@H](C)[C@@H](CN(C)S(=O)(=O)c2ccccc2)Oc2ccc(NC(=O)Nc3ccccc3)cc2C1=O`, 16.6 µM (inactive); under `Nc1cc2[nH]c(=O)c3ccccc3c2cc1[N+](=O)[O-]`, 5.96 µM.
For `O=C(CSc1nnc(-c2ccccc2)n1Cc1ccccc1)NNC(=O)c1ccccc1O`, the IC50 was 4.2 µM.
Then `Cc1c(C(=O)Nc2ccc3nc(N4CCOCC4)sc3c2)oc2ccccc12`, with > 79 µM (inactive); and `COc1ccc(C(=O)Nc2cccc(/C(C)=N/NC(=O)c3ccc([N+](=O)[O-])c(C)c3)c2)cc1OC`, with 4.93 µM.
Under `O=c1cc(-c2cccnc2)oc2c1ccc1ccccc12` stands 31.2 µM (inactive).
Then `COc1cc(OC)cc(C(=O)Nc2ccc(-c3nc4ccccc4o3)cc2)c1`, with > 79 µM (inactive); and `CC(=O)Nc1cc(C)nn1-c1nc2ccccc2s1`, with 14.6 µM (inactive); and `COC(=O)c1cc2ccccn2c2c(C(=O)OC)c(C(=O)OC)cc1-2`, with 2.25 µM.
`CC(C)(C)NC(=O)c1cc(NC(=O)c2cccs2)cc(NC(=O)c2cccs2)c1`: the IC50 was 8.4 µM.
For `Cn1c(=O)c2[nH]c(NN=Cc3ccc(Br)cc3)nc2n(C)c1=O`, the IC50 is 5.14 µM.
Then `Cc1cccc(NC(=O)c2nc[nH]c2C(=O)NCCCCCCNC(=O)c2[nH]cnc2C(=O)Nc2cccc(C)c2)c1`, with > 79 µM (inactive); and `COc1cccc(Nc2nc3ccccc3n3cnnc23)c1`, with 9.05 µM; and `c1ccc(-c2nc(-n3ccnc3)nc(-n3ccnc3)n2)cc1`, with 4.14 µM.
Consider `O=C(c1cc(=O)[nH]c2ccccc12)N1CCN(S(=O)(=O)c2ccc(Cl)cc2)CC1`, for which the IC50 is 1.1 µM.
For the compound `CCOc1ccccc1N1CC(O)=C(c2nc3ccccc3s2)C1=N`, the IC50 was > 79 µM (inactive).
Take `COc1ccc(NC(=O)c2oc3ccc(S(=O)(=O)N4CCOCC4)cc3c2C)cc1`: the IC50 was 0.815 µM.
For the compound `Cc1nc(N2CCN(c3ccccn3)CC2)c2c(C)c(C(=O)Nc3ccc(F)cc3)sc2n1`, the IC50 was 4.36 µM.
Under `COc1cc(C(=O)N/N=C/c2sc(N3CCOCC3)nc2-c2ccccc2)cc(OC)c1OC` stands 16.9 µM (inactive); under `CC(=O)Nc1cccc(NC(=O)c2cc(-c3cccnc3)nc3ccc(Cl)cc23)c1`, 2.24 µM.
Then `COc1cc(OC)c(-c2nn3c(-c4ccco4)nnc3s2)cc1OC`, with 4.56 µM.

One may read the IC50 as the concentration that gives 50% inhibition.
